# Source: patent publication US10953237B2, “Methods of providing skin care using phototherapy” (InDerm, priority 2015, dated 2021)
# System: human epidermal keratinocytes
# Assay: Wound repair (scratch wound closure) in keratinocyte culture
# Format: cell-based
# Protocol: The cells were cultured in a 24-well box (20 to 30 000 cells per well). At confluence, a “wound” was made at the center of the well using an “Essen Woundmaker” (Essen Bioscience, Ann Arbor, USA). After rinsing the wells with PBS to remove detached cells, the optional test agent was applied and illumination was started.
# Cell migration was followed by two types of instrumentation, (i) videomicroscopy or (ii) Incucyte (Essen Bioscience): whereby a photo from the culture well is recorded every 30 minutes or every hour over a period of 48 hours.
# Healing of wounds was studied by dynamic microscopy using a Nikon Eclipse Ti microscope allowing the taking of pictures at intervals of 30 minutes for 24 hours on primary cultures of human fibroblasts and keratinocytes. In this way, it was possible to assess the level of healing.
# Incucyte is a device for visualizing and quantifying cell migration in a CO2 incubator at 37° C. The device is used with the Essen Woundmaker. The equipment was calibrated to produce wounds in cell cultures with high reproducibility. The device featured integrated processing software acquisition and image analysis allowing for quantification of the migration rate of cells.
# The setup of this experiment was as described in the Materials and Methods Section herein above. […]
smiles,measurement,setting,value
"CCCCCCCCCCCCCCCC(=O)O[C@@H]1C[C@@H](C(=O)O)N(C(=O)CCCCCCCCCCCCCCC)C1 [DPHP, Dipalmitoylhydroxyproline]",effect on skin wound repair,"DPHP serum in combination with 3-LED lighting, keratinocytes (FIG. 4)",positive effect
same,time to 45% wound closure,"serum (0.175 wt. % DPHP) added at 0.05 wt % of medium, with 3 LEDs 520, 660, 780 nm for 15 seconds, instead of 10 hrs",6 h
